Measurements: patent US20260216144A1, “TARGETING MB2 OF THE MYC ONCOGENE AND ITS INTERACTION WITH TRRAP IN CANCER” (priority 2019, published 2026)

What was measured:
[1] = molecular target: MYC:TRRAP interaction (Homo sapiens, UniProt P01106+Q9Y4A5); assay: MYC:TRRAP in-cell luminescence complementation assay (NanoBiT; SmB-MYC 1-190 and TRRAP 2033-2283-LgB in HeLa cells); format: cell-based
Summary of the method: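 HeLa cells transfected with SmB-MYC 1-190, TRRAP 2033-2283-LgB and EGFP reporter (6.7:60:33.3 ng plasmid per well); two days later treated 2 h with compounds at 25 μM. NanoBiT luminescence normalized to EGFP fluorescence; hits retested at 10 μM and counter-screened on LgB/SmB alone.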

[2] = molecular target: T1, MYC:TRRAP complexes (Homo sapiens, UniProt P01106+Q9Y4A5); assay: in vitro co-IP (compounds added directly to the purified MYC:TRRAP complex on pre-washed beads); format: binding; conditions: in vitro by co-IP; normalized to protein levels; FIG. 26B; read-out: IC50 for the inhibition of MYC:TRRAP
T1 construct: immunoprecipitation experiments using endogenous full length MYC and TRRAP
Protocol: FIGS. 23A-23B show the results of co-IP assay experiments comparing the top 17 hits in immunoprecipitation experiments using endogenous full length MYC and TRRAP. In these experiments immunocomplexes were immunoprecipitated with anti-MYC beads in the presence of 25 μM of each of the 17 top compounds. Experiments were carried out in cells (compounds were added to the media of cells) (FIG. 23B) or in vitro (compounds were added directly to the purified complex on pre-washed beads) (FIG. 23A). Immunoprecipitation of TRRAP was normalized to the immunoprecipitation of MYC.
This represents an ^~10-fold increase in activity from NSC657456.

Chain of MYC:TRRAP interaction (P01106 16-205): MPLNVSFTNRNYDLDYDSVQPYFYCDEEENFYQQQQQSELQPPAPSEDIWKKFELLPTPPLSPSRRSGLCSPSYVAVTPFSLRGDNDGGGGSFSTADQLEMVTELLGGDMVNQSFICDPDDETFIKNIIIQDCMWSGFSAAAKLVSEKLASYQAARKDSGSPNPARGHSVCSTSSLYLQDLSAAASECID
Chain of MYC:TRRAP interaction (Q9Y4A5 2051-2301): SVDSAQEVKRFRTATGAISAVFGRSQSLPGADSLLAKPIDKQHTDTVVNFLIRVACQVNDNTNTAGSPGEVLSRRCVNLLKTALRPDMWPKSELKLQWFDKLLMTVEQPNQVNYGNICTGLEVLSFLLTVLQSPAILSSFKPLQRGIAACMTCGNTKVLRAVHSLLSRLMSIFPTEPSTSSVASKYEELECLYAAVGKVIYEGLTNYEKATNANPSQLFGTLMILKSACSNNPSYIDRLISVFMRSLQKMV
T1 sequence (P01106 16-454): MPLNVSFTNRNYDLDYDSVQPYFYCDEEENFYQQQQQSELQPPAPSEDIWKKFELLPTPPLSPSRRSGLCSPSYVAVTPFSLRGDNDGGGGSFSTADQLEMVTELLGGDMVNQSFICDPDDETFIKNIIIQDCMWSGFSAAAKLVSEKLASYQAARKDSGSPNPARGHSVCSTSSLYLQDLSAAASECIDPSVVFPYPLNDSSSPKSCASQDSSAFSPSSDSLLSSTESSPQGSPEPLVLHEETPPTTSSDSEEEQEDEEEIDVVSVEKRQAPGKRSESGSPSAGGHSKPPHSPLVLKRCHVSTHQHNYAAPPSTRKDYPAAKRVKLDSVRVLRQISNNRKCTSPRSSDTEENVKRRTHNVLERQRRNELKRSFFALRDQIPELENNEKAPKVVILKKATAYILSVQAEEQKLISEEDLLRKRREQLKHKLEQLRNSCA
T1 sequence (Q9Y4A5 1-3830 isoform Q9Y4A5-2): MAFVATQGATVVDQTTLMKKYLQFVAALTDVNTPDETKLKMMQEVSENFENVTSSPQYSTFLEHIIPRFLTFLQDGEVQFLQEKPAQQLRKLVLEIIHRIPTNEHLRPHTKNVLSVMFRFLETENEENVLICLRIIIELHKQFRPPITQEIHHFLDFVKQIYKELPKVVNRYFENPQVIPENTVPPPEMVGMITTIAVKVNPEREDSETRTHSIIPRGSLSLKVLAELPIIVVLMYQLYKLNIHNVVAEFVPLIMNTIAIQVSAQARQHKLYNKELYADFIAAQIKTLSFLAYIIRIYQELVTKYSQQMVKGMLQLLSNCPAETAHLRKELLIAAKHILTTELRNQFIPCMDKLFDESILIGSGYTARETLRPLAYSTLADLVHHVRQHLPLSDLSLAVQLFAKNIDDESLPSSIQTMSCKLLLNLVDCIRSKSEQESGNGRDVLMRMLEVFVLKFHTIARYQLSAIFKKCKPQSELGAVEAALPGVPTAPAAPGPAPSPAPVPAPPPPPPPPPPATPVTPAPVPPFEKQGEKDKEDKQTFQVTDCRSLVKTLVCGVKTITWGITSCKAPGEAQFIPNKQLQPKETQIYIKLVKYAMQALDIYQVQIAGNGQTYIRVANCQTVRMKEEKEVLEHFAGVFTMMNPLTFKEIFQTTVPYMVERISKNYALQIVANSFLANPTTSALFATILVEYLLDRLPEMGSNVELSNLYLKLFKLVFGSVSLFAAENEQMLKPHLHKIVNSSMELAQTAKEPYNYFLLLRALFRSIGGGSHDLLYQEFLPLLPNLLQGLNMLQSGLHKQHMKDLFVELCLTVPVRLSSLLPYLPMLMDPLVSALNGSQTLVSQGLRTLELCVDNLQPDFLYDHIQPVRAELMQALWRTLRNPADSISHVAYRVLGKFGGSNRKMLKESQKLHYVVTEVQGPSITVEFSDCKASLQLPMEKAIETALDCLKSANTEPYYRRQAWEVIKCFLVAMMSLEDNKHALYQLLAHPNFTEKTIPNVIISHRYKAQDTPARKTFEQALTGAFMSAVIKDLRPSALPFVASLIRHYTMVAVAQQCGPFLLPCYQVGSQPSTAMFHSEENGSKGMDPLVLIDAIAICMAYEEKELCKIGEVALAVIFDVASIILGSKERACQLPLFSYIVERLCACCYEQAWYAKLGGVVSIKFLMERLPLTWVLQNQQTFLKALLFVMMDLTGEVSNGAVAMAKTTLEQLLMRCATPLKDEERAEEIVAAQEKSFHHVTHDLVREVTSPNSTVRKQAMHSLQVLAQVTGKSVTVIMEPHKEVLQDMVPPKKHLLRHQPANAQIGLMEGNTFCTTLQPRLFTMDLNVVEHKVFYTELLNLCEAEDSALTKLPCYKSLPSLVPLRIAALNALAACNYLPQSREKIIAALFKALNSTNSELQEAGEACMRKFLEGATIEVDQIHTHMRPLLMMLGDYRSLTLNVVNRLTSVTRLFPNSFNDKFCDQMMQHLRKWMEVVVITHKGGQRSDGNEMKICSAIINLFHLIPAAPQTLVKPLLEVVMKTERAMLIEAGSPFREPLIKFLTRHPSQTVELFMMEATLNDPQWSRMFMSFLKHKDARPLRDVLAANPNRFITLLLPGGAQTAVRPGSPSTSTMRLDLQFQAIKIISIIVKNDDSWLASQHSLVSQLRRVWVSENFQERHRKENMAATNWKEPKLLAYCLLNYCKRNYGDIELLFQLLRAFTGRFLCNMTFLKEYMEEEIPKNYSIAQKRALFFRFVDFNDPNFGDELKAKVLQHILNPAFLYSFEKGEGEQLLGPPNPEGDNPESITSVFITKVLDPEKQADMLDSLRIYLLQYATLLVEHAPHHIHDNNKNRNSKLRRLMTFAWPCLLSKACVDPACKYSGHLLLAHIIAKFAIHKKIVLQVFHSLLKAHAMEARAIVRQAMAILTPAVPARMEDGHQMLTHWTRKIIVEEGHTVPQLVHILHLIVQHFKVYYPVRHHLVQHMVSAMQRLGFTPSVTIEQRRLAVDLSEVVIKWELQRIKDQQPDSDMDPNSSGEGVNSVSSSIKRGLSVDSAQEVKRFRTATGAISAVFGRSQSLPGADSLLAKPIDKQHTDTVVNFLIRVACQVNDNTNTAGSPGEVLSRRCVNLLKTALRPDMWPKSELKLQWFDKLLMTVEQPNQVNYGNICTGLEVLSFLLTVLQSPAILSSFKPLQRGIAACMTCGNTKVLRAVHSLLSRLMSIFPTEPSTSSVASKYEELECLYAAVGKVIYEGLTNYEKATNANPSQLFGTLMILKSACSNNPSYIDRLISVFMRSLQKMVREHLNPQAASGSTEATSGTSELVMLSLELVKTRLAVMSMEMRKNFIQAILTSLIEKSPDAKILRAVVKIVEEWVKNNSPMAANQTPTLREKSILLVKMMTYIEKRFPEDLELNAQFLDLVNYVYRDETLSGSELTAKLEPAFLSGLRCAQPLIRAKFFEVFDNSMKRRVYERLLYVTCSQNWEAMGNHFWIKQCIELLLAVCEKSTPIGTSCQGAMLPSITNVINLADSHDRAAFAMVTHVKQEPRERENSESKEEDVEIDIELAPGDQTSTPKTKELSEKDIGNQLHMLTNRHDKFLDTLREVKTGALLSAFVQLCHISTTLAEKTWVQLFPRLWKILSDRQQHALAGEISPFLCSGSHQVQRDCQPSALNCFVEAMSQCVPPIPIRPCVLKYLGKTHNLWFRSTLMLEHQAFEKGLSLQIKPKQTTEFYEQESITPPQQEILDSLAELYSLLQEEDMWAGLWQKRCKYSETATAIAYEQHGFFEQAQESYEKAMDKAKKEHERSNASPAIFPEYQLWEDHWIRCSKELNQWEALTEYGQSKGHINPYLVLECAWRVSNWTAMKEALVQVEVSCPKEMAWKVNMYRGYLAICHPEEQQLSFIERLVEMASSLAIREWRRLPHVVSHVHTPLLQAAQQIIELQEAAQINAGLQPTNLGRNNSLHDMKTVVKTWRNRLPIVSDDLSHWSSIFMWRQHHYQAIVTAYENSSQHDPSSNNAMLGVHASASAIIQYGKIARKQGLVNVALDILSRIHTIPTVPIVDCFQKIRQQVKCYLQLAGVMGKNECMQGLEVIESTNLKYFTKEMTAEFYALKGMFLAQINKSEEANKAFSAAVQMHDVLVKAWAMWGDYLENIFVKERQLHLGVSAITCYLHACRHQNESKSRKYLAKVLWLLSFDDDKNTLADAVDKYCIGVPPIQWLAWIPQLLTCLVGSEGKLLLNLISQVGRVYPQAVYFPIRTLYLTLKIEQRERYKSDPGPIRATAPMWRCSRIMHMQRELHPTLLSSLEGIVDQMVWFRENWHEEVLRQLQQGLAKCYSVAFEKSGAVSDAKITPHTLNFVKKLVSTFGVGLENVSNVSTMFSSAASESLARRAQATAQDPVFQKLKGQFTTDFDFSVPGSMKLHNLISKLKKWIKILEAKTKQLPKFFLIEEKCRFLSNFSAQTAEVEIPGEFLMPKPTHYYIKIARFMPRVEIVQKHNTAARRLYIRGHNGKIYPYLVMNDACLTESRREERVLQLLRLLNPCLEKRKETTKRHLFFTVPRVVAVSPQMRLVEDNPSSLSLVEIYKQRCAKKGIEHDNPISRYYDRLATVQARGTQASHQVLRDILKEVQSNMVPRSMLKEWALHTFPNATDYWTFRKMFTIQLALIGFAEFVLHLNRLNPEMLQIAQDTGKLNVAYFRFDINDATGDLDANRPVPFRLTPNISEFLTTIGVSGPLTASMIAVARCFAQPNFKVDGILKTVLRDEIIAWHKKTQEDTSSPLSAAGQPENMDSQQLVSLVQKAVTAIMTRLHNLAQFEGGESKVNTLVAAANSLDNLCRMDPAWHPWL

Oc1[nH]c2ccccc2c1/N=N/c1nc(-c2ccccc2)cs1 [Compound 1024, 3-[(4-phenyl-1,3-thiazol-2-yl)diazenyl]-1H-indol-2-ol]
concentration that inhibits MYC:TRRAP complex formation ([1]; FIG. 25, 26): 3 to 5 µM | % Inhibition 10 uM ([1]; Table 2, compounds with >80% similarity to compound 10 (NSC657456), 10 uM): 39.63% | increase in activity from NSC657456 ([1]; compared with NSC657456): ~ 10 fold | IC50 ([1]; in cells, in-cell luminescence complementation assay, normalized to MYC and TRRAP protein levels, FIG. 26A, read-out: IC50 for the inhibition of MYC:TRRAP): 4.7 µM | IC50 [2]: 3.7 µM
